Assay results as given in ChEMBL document CHEMBL2074497, “Involvement of rat organic anion transporter 3 (rOAT3) in cephaloridine-induced nephrotoxicity: in comparison with rOAT1” (Life Sci, 2002).

Key:
Assay type in all cases: functional, cell-based
[1] = target: T1, Organic anion transporter 3 (Rattus norvegicus, UniProt Q9R1U7); assay: TP_TRANSPORTER: inhibition of Estrone sulfate uptake in OAT3-expressing S2 cells
T1 sequence (Q9R1U7 whole entry): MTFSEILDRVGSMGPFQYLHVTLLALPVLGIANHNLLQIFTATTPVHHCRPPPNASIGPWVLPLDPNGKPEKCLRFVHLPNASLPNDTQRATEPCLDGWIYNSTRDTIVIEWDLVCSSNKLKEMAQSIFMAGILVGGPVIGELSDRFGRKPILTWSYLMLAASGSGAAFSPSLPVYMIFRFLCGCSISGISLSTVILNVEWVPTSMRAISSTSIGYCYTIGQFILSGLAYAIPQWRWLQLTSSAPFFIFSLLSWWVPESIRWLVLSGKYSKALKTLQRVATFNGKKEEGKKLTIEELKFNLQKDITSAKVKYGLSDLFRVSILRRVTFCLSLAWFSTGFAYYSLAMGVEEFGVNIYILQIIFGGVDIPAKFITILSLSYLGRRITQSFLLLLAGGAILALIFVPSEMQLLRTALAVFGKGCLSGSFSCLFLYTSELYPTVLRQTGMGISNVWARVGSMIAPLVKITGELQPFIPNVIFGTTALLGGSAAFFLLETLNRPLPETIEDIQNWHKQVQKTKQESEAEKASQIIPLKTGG

[2] = target: T1, Organic anion transporter 3; assay: TP_TRANSPORTER: uptake in OAT3-expressing S2 cells; conditions: mouse
[3] = target: T2, Solute carrier family 22 member 6 (Rattus norvegicus, UniProt O35956); assay: TP_TRANSPORTER: inhibition of PAH uptake in OAT1-expressing S2 cells
T2 sequence (O35956 whole entry): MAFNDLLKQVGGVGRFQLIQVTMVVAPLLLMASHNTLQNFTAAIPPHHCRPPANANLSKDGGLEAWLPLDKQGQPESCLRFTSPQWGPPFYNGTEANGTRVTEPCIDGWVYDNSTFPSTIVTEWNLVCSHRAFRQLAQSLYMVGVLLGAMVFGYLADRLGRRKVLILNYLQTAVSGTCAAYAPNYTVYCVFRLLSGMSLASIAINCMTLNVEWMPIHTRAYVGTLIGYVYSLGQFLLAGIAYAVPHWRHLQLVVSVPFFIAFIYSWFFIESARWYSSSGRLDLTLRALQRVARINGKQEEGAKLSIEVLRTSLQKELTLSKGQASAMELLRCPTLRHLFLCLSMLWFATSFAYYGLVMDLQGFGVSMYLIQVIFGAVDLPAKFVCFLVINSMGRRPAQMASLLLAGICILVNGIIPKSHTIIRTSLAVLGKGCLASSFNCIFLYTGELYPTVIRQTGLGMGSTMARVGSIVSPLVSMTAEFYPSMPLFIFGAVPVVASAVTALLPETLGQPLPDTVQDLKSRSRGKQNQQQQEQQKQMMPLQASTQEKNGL

A Ki [1] of 670 µM was found for `CCN1CCN(C(=O)N[C@@H](C(=O)N[C@@H]2C(=O)N3C(C(=O)O)=C(CSc4nnnn4C)CS[C@H]23)c2ccc(O)cc2)C(=O)C1=O` [CEFOPERAZONE] in this work.

An IC50 [1] of 800 µM was found for `CO/N=C(\C(=O)N[C@@H]1C(=O)N2C(C(=O)O)=C(COC(C)=O)CS[C@H]12)c1csc(N)n1` [CEFOTAXIME] in this work.

An IC50 [1] of 1780 µM was found for `CC1=C(C(=O)O)N2C(=O)[C@@H](NC(=O)[C@H](N)c3ccc(O)cc3)[C@H]2SC1` [CEFADROXIL] in this work.

An IC50 [1] of 90 µM was found for `Cn1nnnc1SCC1=C(C(=O)O)N2C(=O)[C@@H](NC(=O)[C@H](O)c3ccccc3)[C@H]2SC1` [CEFAMANDOLE] in this work.

A Ki [1] of 780 µM was found for `Cc1nnc(SCC2=C(C(=O)O)N3C(=O)[C@@H](NC(=O)Cn4cnnn4)[C@H]3SC2)s1` [CEFAZOLIN] in this work.

For `O=C(Cc1cccs1)N[C@@H]1C(=O)N2C(C(=O)[O-])=C(C[n+]3ccccc3)CS[C@H]12` [CEPHALORIDINE], the Ki [1] was 1140 µM and the Activity [2] was “substrate [+]”.

A Ki [1] of 48 µM was found for `CC(=O)OCC1=C(C(=O)O)N2C(=O)[C@@H](NC(=O)Cc3cccs3)[C@H]2SC1` [CEPHALOTHIN] in this work.

An IC50 [1] of over 2000 µM was found for `CO/N=C(\C(=O)N[C@@H]1C(=O)N2C(C(=O)O)=C(CSc3nc(=O)c(=O)[nH]n3C)CS[C@H]12)c1csc(N)n1` [CEFTRIAXONE] in this work.

An IC50 [1] of 630 µM and an IC50 [3] of over 2000 µM were found for `CC1=C(C(=O)O)N2C(=O)[C@@H](NC(=O)[C@H](N)c3ccccc3)[C@H]2SC1` [CEPHALEXIN ANHYDROUS] in this work.
